US10934273B2, “Crystalline forms of 4-(2-((1R,2R)-2-hydroxycyclohexylamino)benzothiazol-6-yloxy)-N-methylpicolinamide” (Novartis AG, priority 2016, dated 2021)
Counter-ions that a name gives are not always drawn. Like-named read-outs stand apart in the source and are kept apart here.

Assays:
Assay type in all cases: physicochemical
[1] = Intrinsic dissolution rate; settings: pH 4.5; Form A versus Form B
[2] = Hygroscopicity (water uptake / exposure to humidity)
Experimental: (§1) The crystalline di-hydrochloride monohydrate salt of 4-(2-((1R,2R)-2-hydroxycyclohexylamino)benzothiazol-6-yloxy)-N-methylpicolinamide (Form A) exists primarily as a crystalline material. Form A is hygroscopic, having a maximum water uptake of about 10.79% at 25° C. and up to 95% relative humidity (RH)). […] Form A has a very low aqueous solubility at neutral pH (about 0.006 mg/mL), however it has a high aqueous solubility at low pH (about >20 mg/mL).

Aqueous solubility = settings: aqueous medium, aqueous buffer
Experimental: as §1

[3] = Bulk physical and chemical stability (degradation under stress conditions)
From the text: Five hydrated forms of the di-hydrochloride salt were identified, which included the crystalline di-hydrochloride monohydrate salt of 4-(2-((1R,2R)-2-hydroxycyclohexylamino)benzothiazol-6-yloxy)-N-methylpicolinamide (Form A) discussed herein.

Structure (SMILES): CNC(=O)c1cc(Oc2ccc3nc(N[C@@H]4CCCC[C@H]4O)sc3c2)ccn1 [Form A, Di-Hydrochloride Monohydrate Salt of 4-(2-((1R,2R)-2-hydroxycyclohexylamino)benzothiazol-6-yloxy)-N-methylpicolinamide]
- intrinsic dissolution rate relative to mono-hydrochloride salt (Form B) [1]: about 150 fold
- maximum water uptake ([2]; 25° C., up to 95% relative humidity (RH)): about 10.79%
- phase change on exposure to humidity ([2]; exposure to humidity): little to no phase change
- solubility (Aqueous solubility; low pH, read-out: aqueous solubility at low pH): > 20000 µg/mL
- solubility (Aqueous solubility; neutral pH, read-out: aqueous solubility at neutral pH): ~6 µg/mL
- thermodynamic stability compared to the other four hydrated forms ([3]; ambient conditions): more thermodynamically stable hydrate
- degradation of bulk drug substance ([3]; one to two weeks at 50° C., 75% relative humidity): less than 1%
- degradation of bulk drug substance ([3]; one to two weeks at 50° C., ambient relative humidity): less than 1%
- degradation of bulk drug substance ([3]; one week at 80° C., ambient relative humidity): less than 1%
